Legend:
Test in all cases: Postemergence herbicidal activity of mixtures in the field (rice), visual weed control
Type in all cases: in vivo
[1] = test system: Brachiaria platyphylla (GRISEB.) NASH (BRAPP); details: imazamox 44 g ai/ha
Experimental: (§1) Evaluation of Postemergence Herbicidal Activity of Mixtures in the Field
(§2) Field trials were conducted in rice using standard herbicide small plot research methodology. Plot size was 2×6 meter (m) with 4 replicates per treatment. The rice crop was grown using normal cultural practices for fertilization, seeding, watering, flooding and maintenance to ensure good growth of the crop and the weeds.
(§3) All treatments in the field trials were applied using a compressed air backpack sprayer calibrated to apply 187 liters per hectare (L/ha) spray volume. Commercially available products of the premix penoxsulam plus triclopyr (GraspXTRA® herbicide, trademark of Dow AgroSciences LLC) and imazethapyr or imazamox were mixed in water at appropriately formulated product rates to achieve the desired rates based on a unit area of application (hectare) to achieve the desired rates as shown. The GraspXTRA herbicide is a product that contains 0.25 lb penoxulam and 2.06 lb triclopyr triethylamine salt (1.5 lb acid equivalent) per gallon, so the weight ratio of the penoxulam to triclopyr acid equivalent is 1:6. Imazethapyr was used as Newpath 240 SL. imazamox was used as Beyond 120 SL. Treatments were rated at 15 to 63 days after application as compared to the untreated control plants. Visual weed control was scored on a scale of 0 to 100 percent where 0 corresponds to no injury and 100 corresponds to complete kill.
(§4) All treatment results, both for the single premix product, the single entity product and mixtures, are an average of 4 replicates and the tank mix interactions are significant at the […] level.
(§5) Colby's equation was used to determine the herbicidal effects expected from the mixtures (Colby, S. R. Calculation of the synergistic and antagonistic response of herbicide combinations. Weeds 1967, 15, 20-22.).
(§6) The following equation was used to calculate the expected activity of mixtures containing two active ingredients, A and B: Expected=A+B−(A×B/100)
(§7) A=observed efficacy of active ingredient A at the same concentration as used in the mixture.
(§8) B=observed efficacy of active ingredient B at the same concentration as used in the mixture.
(§9) All comparisons are an average of 4 replicates and are significant at the […] level. Rates of penoxsulam, triclopyr and imazethapyr or imazamox are expressed in grams active ingredient/hectare (g ai/ha).

[2] = test system: Caperonia palustris ST.-HIL. (CNPPA); details: imazamox 44 g ai/ha
Experimental: as §1, §2, §3, §4, §5, §6, §7, §8, §9

[3] = test system: Echinochloa crus-galli (ECHCG)
Experimental: as §1, §2, §3, §4, §5, §6, §7, §8, §9

Setaria spp. (SETSS) = details: imazethapyr 70 g ai/ha
Experimental: as §1, §2, §3, §4, §5, §6, §7, §8, §9

Compound | % Control 41 DAA BRAPP Ob [1] [%] | % Control 43 DAA CNPPA Ob [2] [%] | % Control 43 DAA ECHCG Ob ([3]; imazamox 44 g ai/ha, 43 DAA) [%] | % Control 15DAA ECHCG Ob ([3]; imazethapyr 70 g ai/ha, 15 DAA) [%] | % Control 63DAA ECHCG Ob ([3]; imazethapyr 70 g ai/ha, 63 DAA) [%] | % Control 15DAA SETSS Ob (Setaria spp. (SETSS); 15 DAA) [%] | % Control 63DAA SETSS Ob (Setaria spp. (SETSS); 63 DAA) [%]
COCc1cnc(C2=NC(C)(C(C)C)C(=O)N2)c(C(=O)O)c1 (stereo not shown) [Imazamox, 2-[4,5-dihydro-4-methyl-4-(1-methylethyl)-5-oxo-1H-imidazol-2-yl]-5-(methoxymethyl)-3-pyridinecarboxylic acid] | 61 | 0 | 78 | – | – | – | –
CCc1cnc(C2=NC(C)(C(C)C)C(=O)N2)c(C(=O)O)c1 (stereo not shown) [Imazethapyr, 2-[4,5-dihydro-4-methyl-4-(1-methylethyl)-5-oxo-1H-imidazol-2-yl]-5-ethyl-3-pyridinecarboxylic acid] | – | – | – | 69 | 36 | 69 | 36

From patent US9968084B2, “Synergistic herbicidal composition containing penoxsulam, triclopyr and imazethapyr” (Dow AgroSciences LLC, priority 2011, dated 2018)
